Marks after values point to notes of the source that are not given here.
Test: Stability Test of Latanoprost 1: residual ratio of latanoprost in phosphate buffer at each pH after storage at 60° C. or 70° C. (HPLC)
Type: physicochemical
Settings: for Residual ratio (%): pH 8.0, phosphate buffer
Procedure: 1) Latanoprost (0.0025 g) was weighed out in a 50 ml-beaker, a phosphate buffer (50 ml) having each pH (4.0, 5.0, 5.5, 6.0, 6.25, 6.5, 6.7 or 8.0) prepared in advance was added to the beaker, and the mixture was stirred with a magnetic stirrer. The mixture was stirred while warming it in a water bath at about 80° C. for about 30 minutes to dissolve latanoprost. 2) It was confirmed that latanoprost was dissolved, and pH was confirmed. 3) A glass ampoule was charged with each prepared solution (2.5 ml) and sealed by melting it. 4) It was stored at 60° C. or 70° C. 5) Sampling was carried out with time until 28th day after starting storage, latanoprost contents were measured by high performance liquid chromatography, and residual ratios were calculated. Samples having residual ratios of 95% or higher after storage at 60° C. for 28 days and residual ratios of 90% or higher after storage at 70° C. for 28 days were judged to be stable.

Compound: CC(C)OC(=O)CCC/C=C\C[C@@H]1[C@@H](CC[C@@H](O)CCc2ccccc2)[C@H](O)C[C@@H]1O [latanoprost, isopropyl (Z)-7[(1R,2R,3R,5S)3,5-dihydroxy-2-[(3R)-3-hydroxy-5-phenylpentyl]cyclopentyl]-5-heptanoate]
- Residual ratio (%) after storage for 28 days (60° C., pH 4.0, phosphate buffer): 87.4%
- Residual ratio (%) after storage for 28 days (60° C., pH 5.0, phosphate buffer): 98.9%
- Residual ratio (%) after storage for 28 days (60° C., pH 5.5, phosphate buffer): 98.0%
- Residual ratio (%) after storage for 28 days (60° C., pH 6.0, phosphate buffer): 98.9%
- Residual ratio (%) after storage for 28 days (60° C., pH 6.25, phosphate buffer): 95.0%
- Residual ratio (%) after storage for 28 days (60° C., pH 6.5, phosphate buffer): 92.4%
- Residual ratio (%) after storage for 28 days (60° C., pH 6.7, phosphate buffer): 93.4%
- Residual ratio (%) (60° C., value on 21st day): 30.0* %
- Residual ratio (%) after storage for 28 days (70° C., pH 4.0, phosphate buffer): 76.7%
- Residual ratio (%) after storage for 28 days (70° C., pH 5.0, phosphate buffer): 94.9%
- Residual ratio (%) after storage for 28 days (70° C., pH 5.5, phosphate buffer): 94.6%
- Residual ratio (%) after storage for 28 days (70° C., pH 6.0, phosphate buffer): 93.1%
- Residual ratio (%) after storage for 28 days (70° C., pH 6.25, phosphate buffer): 92.0%
- Residual ratio (%) after storage for 28 days (70° C., pH 6.5, phosphate buffer): 82.7%
- Residual ratio (%) (70° C., value on 12th day): 14.1** %
